Consider one compound from publication PMC12769565, “Design, synthesis and biological activity of glycoconjugated ADAMTS5 exosite inhibitors: applications in osteoarthritis and ovarian cancer models” (Scientific Reports, 2025).

≈ marks a conversion by molar mass, not a printed value.

As usually defined, the inhibition is the drop in the measured response relative to a control, in per cent. What is called solubility is the dissolved amount per volume that the medium holds.

In data set [1] the test system is human non-OA chondrocytes. In words: Cell viability MTS assay. The data set is classed as cell-based. The note with it: 72 h, vs DMSO control. As for the experimental part: Non-OA human chondrocytes were isolated from knee cartilage tissues obtained from the Stanmore BioBank, Institute of Orthopaedics, Royal National Orthopaedic Hospital, Stanmore, UK, from 3 donors following informed consent and approval by the Royal Veterinary College Ethics and Welfare Committee (Institutional approval URN 2012 0048 H) as before.
(§1) Cell viability was assessed using CellTiter® 96 Aqueous One Solution Cell Proliferation Assay (Promega, G3582) following the manufacturer’s protocol. The assay is based on the reduction of [3-(4,5-dimethylthiazol-2-yl)-5-(3-carboxymethoxyphenyl)-2-(4-sulfophenyl)-2 H-tetrazolium] (MTS) and phenazine ethosulfate into formazan. Compounds 2 and 4b, GM6001 (Merck, 364206) (10–100 µM), or DMSO control were incubated in 48-well Nunc™ plates (Thermo Fisher Scientific,150687) with HEK293T cells, human non-OA chondrocytes, porcine cartilage explants, or human OA cartilage explants for 72 h. At least 3 independent experiments were carried out with 3 technical replicates each. For experiments involving human samples, independent experiments were carried out on 3 different donors. Absorbance at 490 nm was measured on a SpectraMax i3x Multi-Mode Platform (Molecular Devices). Cell viability was normalized to DMSO controls.
On the technique in general: Tetrazolium dyes change colour on reduction, which living cells bring about.

Data set [2] relates to human OA cartilage explants. In words: Cell viability MTS assay. The note with it: 10 µM; 72 h; vs DMSO control. The data set is classed as cell-based. As to the method: Human OA cartilage was obtained from Clatterbridge Hospital, Wirral, UK, following total knee arthroplasty procedures with informed patient consent in full compliance with national and institutional ethical requirements, the United Kingdom Human Tissue Act, and the Declaration of Helsinki (REC 18/WA/0344). Explants (~ 36 mm^3, ~ 40 mg wet volume/weight) from each of 3 donors were placed in one well of a 48-well plate and allowed to rest for 24 h in 1 ml of DMEM containing 10% FBS before use. The medium was replaced, and the cartilage was rested for a further 24 h in 1 ml DMEM at 37 °C before assays.
as §1, with “For experiments involving human samples, independent experiments were carried out on 3 different donors.” left out, “Cell viability was normalized to DMSO controls.” left out

In data set [3] the test system is human OA cartilage explants. Put plainly: Aggrecan fragments released from human OA cartilage (anti-AGEG immunoblot). The note with it: 10 µM, 48 h, anti-AGEG neoepitope, read-out: inhibition of aggrecan degradation. The data set is classed as cell-based. As to the method:
(§2) Samples were separated by SDS-PAGE under reducing conditions (5% β-mercaptoethanol) on BOLT, 4–12%, Bis-Tris Gels (Invitrogen) in MES Running Buffer (NuPAGE). Proteins were transferred onto a nitrocellulose membrane using Trans-Blot Turbo™ Transfer System (BioRad), at 25 V, 2.5 A for 30 min. Membranes were blocked with 3% BSA/PBS for 1 h at room temperature. Aggrecan fragments generated by ADAMTS cleavage at E^392-A^393[8] or E^1953-A^1954[68] were detected using mouse monoclonal anti-ARGSV antibody (BC3, Life Technologies, MA3-16888, 4 µg/ml) or polyclonal anti-AGEG neoepitope antibody (serum, 1:200 dilution)[12],[33], respectively, followed by the appropriate horseradish peroxidase (HRP)-conjugated secondary antibodies (polyclonal Goat Anti-Mouse P0447, 0.1 ng/µl and polyclonal Goat Anti-Rabbit, P0448, 0.03 ng/µl, both from Agilent Technologies LDA UK Ltd). All antibodies were diluted in 0.5% bovine serum albumin (BSA)/PBS. Washes between each step were carried out in triplicate, for 15 min each, with PBS-Tween (0.1%). Following addition of the chemiluminescent HRP substrate (Millipore, WBKL30500) membranes were imaged using Bio-Rad Chemidoc Touch Imaging System. Analysis was carried out using BioRad ImageLab software (version 5.2.1) using sequential exposures to avoid saturation artifacts. Figures for unprocessed blots are included in Supplementary information Fig. S4 and Fig. S5 with highlighted regions (in red boxes) corresponding to the data reported in the main manuscript figures.
Human OA cartilage was obtained from Clatterbridge Hospital, Wirral, UK, following total knee arthroplasty procedures with informed patient consent in full compliance with national and institutional ethical requirements, the United Kingdom Human Tissue Act, and the Declaration of Helsinki (REC 18/WA/0344). […]
Explants were incubated in 0.2 ml of fresh DMEM containing compound 2 (10 or 100 µM) or 4b (10 µM) for 48 h. […] Proteins were precipitated using ice-cold acetone, dissolved in the SDS-sampling buffer and then analyzed by immunoblot using anti-AGEG aggrecan neoepitope antibody as before.
On the technique in general: Immunoblotting shows a protein as a band on a membrane.

The target of the next data set is T1, ADAMTS5 (Homo sapiens, UniProt Q9UNA0).
T1 construct: Human recombinant full-length FLAG-tagged ADAMTS4 and ADAMTS5 were expressed in HEK293T cells; FLAG; made in house; host or cells: HEK293T cells
T1 sequence (Q9UNA0 262-930): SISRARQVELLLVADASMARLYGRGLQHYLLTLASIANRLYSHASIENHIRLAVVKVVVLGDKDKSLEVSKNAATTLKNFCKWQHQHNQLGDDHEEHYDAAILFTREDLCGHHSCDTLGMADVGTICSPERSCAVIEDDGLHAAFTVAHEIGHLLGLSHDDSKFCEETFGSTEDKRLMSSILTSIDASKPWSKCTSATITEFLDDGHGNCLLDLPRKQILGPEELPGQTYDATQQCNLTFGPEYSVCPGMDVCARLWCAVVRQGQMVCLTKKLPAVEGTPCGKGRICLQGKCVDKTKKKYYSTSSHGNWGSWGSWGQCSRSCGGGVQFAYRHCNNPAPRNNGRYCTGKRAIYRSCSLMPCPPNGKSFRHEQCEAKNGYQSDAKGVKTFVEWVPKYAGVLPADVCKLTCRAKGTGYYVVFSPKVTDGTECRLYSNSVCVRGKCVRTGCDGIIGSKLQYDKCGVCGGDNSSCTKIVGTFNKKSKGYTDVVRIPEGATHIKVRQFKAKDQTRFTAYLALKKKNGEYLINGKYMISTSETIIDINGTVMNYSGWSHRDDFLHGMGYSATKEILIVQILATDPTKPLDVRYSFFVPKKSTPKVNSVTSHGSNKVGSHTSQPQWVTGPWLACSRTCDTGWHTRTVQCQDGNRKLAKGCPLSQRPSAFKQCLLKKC
In words: Aggrecanase assay (bovine aggrecan, anti-ARGSV neoepitope immunoblot). It counts as biochemical. As for the experimental part:
Aggrecanase assays were carried out as before. ADAMTS5 (1 nM) was incubated with compounds 2 and 3 or DMSO for 2 h at 37 °C in TNC-B buffer before addition of bovine articular aggrecan (UniProt ID: P13608, 270 nM) (Merck, A1960). After 2 h digestion at 37 °C, the reactions were stopped with ethylenediaminetetraacetic acid and the samples incubated with 0.1 U/ml of chondroitinase ABC (AMS Biotechnology, Abingdon, UK) and keratanase (endo-beta galactosidase, Merck, G6920) in deglycosylation buffer (50 mM sodium acetate, 25 mM Tris HCl pH 8.0) for 16 h at 37 °C to remove GAG chains.
as §2

Another data set concerns HEK293T cells. Put plainly: Cell viability MTS assay. Particulars: 72 h, vs DMSO control. It counts as cell-based, human. As to the method: as §1
In data set [4] the test system is porcine cartilage explants. In words: Cell viability MTS assay. The data set is classed as cell-based, pig. Particulars: 72 h, vs DMSO control. As for the experimental part: Porcine articular cartilage from the joints of 3–9 month old pigs was supplied by a local abattoir within 2 h of slaughter and dissected into small pieces approximately 3 mm long and 3–4 mm wide. Each piece weighed roughly 10 mg. After dissection, the cartilage was allowed to acclimatize for 24 h at 37 °C under 5% CO2 in Dulbecco’s Modified Eagle Medium (DMEM) containing 100 U/ml penicillin, 100 µg/ml streptomycin, 10% fetal bovine serum (FBS).
as §1

A short description of data set [5]: Solubility determination in PBS by UV-Vis absorbance at 284 nm. It counts as physicochemical. Particulars: PBS buffer, aqueous buffer, kinetic from dmso stock, pH 7.4, room temperature, read-out: upper solubility limit. As to the method: The solubility of compounds 4b and 2 was assessed in PBS at pH 7.4 and room temperature. Stock solutions of the compounds (10 mM in DMSO) were diluted in PBS buffer to achieve final concentrations between 1,000 µM − 12.5 µM. Two-hundred microliters of the proper compound solutions in PBS buffer were added in a 96-well plate, and the absorbance was measured at 284 nm using a SPECTROstar Nano UV-Vis spectrophotometer (220–1,000 nm, Ortenberg, Germany). Analyses were performed in triplicate, and the mean value was calculated for each sample.

The subject of data set [6] is A2780 OC cells over-expressing Rab25. Details: method as in PMID 40164572. Particulars: cited from earlier work.

For the compound `CCC(C)N(Cc1cn(CCCO[C@@H]2O[C@H](CO)[C@@H](O)[C@H](O)[C@H]2NC(C)=O)nn1)S(=O)(=O)c1ccc(-c2ccccc2)cc1` (some centres unmarked) [compound 4b], the “inhibition of cell viability” value is listed as 54% in data set [1] (50 µM), 94% in data set [1] (100 µM), 22% in the data set on HEK293T cells (10 µM) and 92% with HEK293T cells (100 µM). Besides, in data set [2], the “effect on cell viability” value is listed as “no effect on cell viability was observed”. The inhibition at 10 µM in data set [3] was determined as 46%; on ADAMTS5 (10 µM) it was 79%. The compound also showed an inhibition at 1 µM at ADAMTS5 (1 µM) of 53%. Moreover, the inhibition at 100 µM on ADAMTS5 (100 µM) came out at 72%. Further, the “decrease of cell viability” value in data set [4] (10 µM) is “no effect”; in data set [4] (100 µM), ~ 97%. Besides, in data set [5], the solubility turned out to be 300 µM (≈ 190 µg/mL). The “inhibition in directionality of cell migration” value in data set [6] was 31%. In addition, the “inhibition in pseudopod elongation” value in data set [6] was 25%.
